Test results taken from patent US20080145858A1, “DETECTION AND IDENTIFICATION OF TOXICANTS BY MEASUREMENT OF GENE […]” (priority 2003, published 2008).
Marks after values point to notes of the source that are not given here.

Tested on: Xenopus laevis cleavage stage embryos (stage 8)
Test: Xenopus cDNA microarray, differential gene expression after PMA treatment during cleavage stage (Group I)
Assay type: in vivo
Settings: stage 8; for Normalized by Landmarks (1.59) / Normalized by all Data Points (1.28) / Ratio of Medians (Cy5/Cy3) First Spot / Ratio of Medians (Cy5/Cy3) Mean / Ratio of Medians (Cy5/Cy3) Second Spot / (CY3/CY5) by Landmarks (1.6) / (CY3/CY5) by all Data Points (1.3) / Normalization by Landmarks (1.6) / Normalization by all Data Points (1.3): PMA 100 ng/ml
Excerpt: Specifically, the method and screen of the present invention function as follows. EST clones produced from Xenopus laevis unfertilized eggs were used in the present study with ˜1,200 EST clones from a 18,500 EST clone set selected for production of a Xenopus cDNA microarray. The Xenopus microarray was used to measure the effect of chemical treatment on Xenopus embryo gene regulation. The chemical treatment was a phorbol ester, PMA. Xenopus eggs were obtained from females induced for ovulation and fertilized in vitro. Control Xenopus laevis embryos were allowed to develop to stage 8 blastula or stage 15 neurula. Treated embryos were exposed to PMA during cleavage stage or during neurulation with end points of blastula (stage 8) or neurula (stage 15). Specifically, PMA 100 ng/ml was added to the incubation media during cleavage stages for evaluation in stage 8 embryo or PMA was added during neural induction for evaluation in stage 15 embryos. RNA extracted from the embryos was used to generate fluorescent cDNA probes for Xenopus microarray analyses to measure differential gene expression with and without the phorbol ester treatment. Analysis was performed using paired RNA samples to compare PMA-treated and untreated embryos: Group I measured the effects of PMA-treatment during the cleavage stage in stage 8 embryos and Group II measured the effects of PMA-treatment during neurulation in stage 15 embryos. Group III measured the change in gene expression between stage 8 and stage 15 embryos.
cDNA fragments were obtained by PCR replication of Xenopus laevis unfertilized egg cDNA inserts, purified, quantitated and loaded onto glass chips by robotics. In addition to the selected ˜1,200 genes, 64 lambda Q gene, an internal control cDNA (Genomic Solutions, Inc., Ann Arbor, Mich.) was loaded on the chip. The insert DNA from ˜1,200 clones were PCR amplified using forward and reverse primers (GF.200 primers, Research Genetics, Huntsville, Ala.). A second PCR was carried out using 1 μl of the primary PCR (20 μl) for template. Excess dNTPs, polymerase and other PCR artifacts were removed from the secondary PCR reactions using Millipore Multiscreen plates (Millipore Corporation, Bedford, Mass.) using the standard protocol. The purity of the PCR products was assessed by electrophoresis and documented using an Alphalmager 1000 Digital Imaging System (Alpha Innotech Corporation, San Leandro, Calif.). The DNA obtained by PCR was quantitated using PicoGreen (Molecular Probes, Eugene, Oreg.). The DNA was denatured and arrayed onto amino-silane coated microscope slides (CMT-GAPS coated slides, Corning, Corning, N.Y.) using a Flexys robotic workstation (Genomic Solutions Inc.). The ˜1,200 PCR products were arrayed in duplicate on each slide and cross-linked. Each gene chip contained duplicate cDNA samples.
Total RNA was prepared from embryos treated in three separate dishes per treatment group that were pooled. Total RNA was isolated from the frog embryos (1,200 embryos for each probe production) using TRIzol extraction (Gibco BRL, Grand Island, N.Y.) and Qiagen RNeasy kits (Qiagen, Valencia, Calif.). The ethanol precipitated RNA was resuspended in RNase-free water, quantitated with RiboGreen (Molecular Probes, Eugene, Oreg.). Total RNA was further purified using oligoTex mRNA maxi kit (Qiagen Co.) with the bound mRNA eluted with minimum volume of elution buffer and precipitated with ethanol. The recovery rate of mRNA by the ethanol precipitation method was ˜70%. Cy3- or Cy5-tagged probes were produced from an mRNA mixture (20 μl) of Xenopus mRNA (5 μg) and lambda Q gene mRNA (3.5 ng) reverse-transcribed with oligo(dT)18-22 primer and dNTPs and the reverse-transcribed cDNA was cross-linked with Cy3 or Cy5 as described in Clontech Atlas™ Glass Fluorescent Labeling kit manual (www.clontech.com). After hydrolysis of the RNA and purification of the probe (Centricon 50, Millipore, Bedford, Mass.), the cDNA in TE buffer was quantitated by absorbance at 260 nm. […]

Question: Which “alpha-tubulin expression ratio, mean of 4 data points using NF from landmarks” value (2 alpha-tubulin genes (house keeping)) does the source give for `CCCCCCCCCCCCCC(=O)O[C@@H]1[C@@H](C)[C@@]2(O)[C@@H](C=C(CO)C[C@]3(O)C(=O)C(C)=C[C@@H]23)[C@@H]2C(C)(C)[C@]12OC(C)=O` [PMA, phorbol 12-myristate 12-acetate] here?
Answer: 0.85

Question: And the “Normalized by Landmarks (1.59)” value (PBX0134C10 mRNA)?
Answer: 7.95

Question: And the “Normalized by all Data Points (1.28)” value (PBX0134C10 mRNA)?
Answer: 6.40

Question: What about the “Ratio of Medians (Cy5/Cy3) First Spot” value (PBX0134C10 mRNA) of the same compound?
Answer: 3.33

Question: And the “Ratio of Medians (Cy5/Cy3) Mean” value (PBX0134C10 mRNA)?
Answer: 5.00 ± 1.67^a

Question: And the “Ratio of Medians (Cy5/Cy3) Second Spot” value (PBX0134C10 mRNA)?
Answer: 6.67

Question: What about the “Normalized by Landmarks (1.59)” value (PBX0134E04 mRNA) of the same compound?
Answer: 4.58

Question: And the “Normalized by all Data Points (1.28)” value (PBX0134E04 mRNA)?
Answer: 3.69

Question: And the “Ratio of Medians (Cy5/Cy3) First Spot” value (PBX0134E04 mRNA)?
Answer: 2.75

Question: And the “Ratio of Medians (Cy5/Cy3) Mean” value (PBX0134E04 mRNA)?
Answer: 2.88 ± 0.12

Question: What about the “Ratio of Medians (Cy5/Cy3) Second Spot” value (PBX0134E04 mRNA) of the same compound?
Answer: 3.00

Question: What about the “Normalized by Landmarks (1.59)” value (PBX0134G08 mRNA) of the same compound?
Answer: 7.62

Question: And the “Normalized by all Data Points (1.28)” value (PBX0134G08 mRNA)?
Answer: 6.13

Question: What about the “Ratio of Medians (Cy5/Cy3) First Spot” value (PBX0134G08 mRNA) of the same compound?
Answer: 4.25

Question: What about the “Ratio of Medians (Cy5/Cy3) Mean” value (PBX0134G08 mRNA) of the same compound?
Answer: 4.79 ± 0.54

Question: What about the “Ratio of Medians (Cy5/Cy3) Second Spot” value (PBX0134G08 mRNA) of the same compound?
Answer: 5.33

Question: What about the “Normalized by Landmarks (1.59)” value (PBX0134G10 mRNA) of the same compound?
Answer: 5.20

Question: And the “Normalized by all Data Points (1.28)” value (PBX0134G10 mRNA)?
Answer: 4.19

Question: What about the “Ratio of Medians (Cy5/Cy3) First Spot” value (PBX0134G10 mRNA) of the same compound?
Answer: 2.71

Question: And the “Ratio of Medians (Cy5/Cy3) Mean” value (PBX0134G10 mRNA)?
Answer: 3.27 ± 0.56

Question: And the “Ratio of Medians (Cy5/Cy3) Second Spot” value (PBX0134G10 mRNA)?
Answer: 3.83

Question: And the “Normalized by Landmarks (1.59)” value (PBX0134G11 mRNA)?
Answer: 3.90

Question: And the “Normalized by all Data Points (1.28)” value (PBX0134G11 mRNA)?
Answer: 3.14

Question: What about the “Ratio of Medians (Cy5/Cy3) First Spot” value (PBX0134G11 mRNA) of the same compound?
Answer: 2.50

Question: And the “Ratio of Medians (Cy5/Cy3) Mean” value (PBX0134G11 mRNA)?
Answer: 2.45 ± 0.05

Question: What about the “Ratio of Medians (Cy5/Cy3) Second Spot” value (PBX0134G11 mRNA) of the same compound?
Answer: 2.40

Question: And the “Normalized by Landmarks (1.59)” value (PBX0134H03 mRNA)?
Answer: 5.44

Question: What about the “Normalized by all Data Points (1.28)” value (PBX0134H03 mRNA) of the same compound?
Answer: 4.38

Question: What about the “Ratio of Medians (Cy5/Cy3) First Spot” value (PBX0134H03 mRNA) of the same compound?
Answer: 3.67

Question: And the “Ratio of Medians (Cy5/Cy3) Mean” value (PBX0134H03 mRNA)?
Answer: 3.42 ± 0.25

Question: And the “Ratio of Medians (Cy5/Cy3) Second Spot” value (PBX0134H03 mRNA)?
Answer: 3.17

Question: What about the “Normalized by Landmarks (1.59)” value (PBX0135C06 mRNA) of the same compound?
Answer: 4.29

Question: What about the “Normalized by all Data Points (1.28)” value (PBX0135C06 mRNA) of the same compound?
Answer: 3.46

Question: What about the “Ratio of Medians (Cy5/Cy3) First Spot” value (PBX0135C06 mRNA) of the same compound?
Answer: 3.00

Question: What about the “Ratio of Medians (Cy5/Cy3) Mean” value (PBX0135C06 mRNA) of the same compound?
Answer: 2.70 ± 0.30

Question: What about the “Ratio of Medians (Cy5/Cy3) Second Spot” value (PBX0135C06 mRNA) of the same compound?
Answer: 2.40

Question: What about the “(CY3/CY5) by Landmarks (1.6)” value (PBX0136B04 mRNA) of the same compound?
Answer: 2.76

Question: What about the “(CY3/CY5) by all Data Points (1.3)” value (PBX0136B04 mRNA) of the same compound?
Answer: 4.41

Question: And the “Normalization by Landmarks (1.6)” value (PBX0136B04 mRNA)?
Answer: 0.36

Question: What about the “Normalization by all Data Points (1.3)” value (PBX0136B04 mRNA) of the same compound?
Answer: 0.23

Question: And the “Ratio of Medians (Cy5/Cy3) First Spot” value (PBX0136B04 mRNA)?
Answer: 0.11

Question: And the “Ratio of Medians (Cy5/Cy3) Mean” value (PBX0136B04 mRNA)?
Answer: 0.17 ± 0.06

Question: And the “Ratio of Medians (Cy5/Cy3) Second Spot” value (PBX0136B04 mRNA)?
Answer: 0.24

Question: What about the “Normalized by Landmarks (1.59)” value (PBX0136C09 mRNA) of the same compound?
Answer: 5.55

Question: What about the “Normalized by all Data Points (1.28)” value (PBX0136C09 mRNA) of the same compound?
Answer: 4.47

Question: What about the “Ratio of Medians (Cy5/Cy3) First Spot” value (PBX0136C09 mRNA) of the same compound?
Answer: 3.80

Question: What about the “Ratio of Medians (Cy5/Cy3) Mean” value (PBX0136C09 mRNA) of the same compound?
Answer: 3.49 ± 0.31

Question: And the “Ratio of Medians (Cy5/Cy3) Second Spot” value (PBX0136C09 mRNA)?
Answer: 3.17

Question: What about the “Normalized by Landmarks (1.59)” value (PBX0136F03 mRNA) of the same compound?
Answer: 5.26

Question: And the “Normalized by all Data Points (1.28)” value (PBX0136F03 mRNA)?
Answer: 4.24

Question: What about the “Ratio of Medians (Cy5/Cy3) First Spot” value (PBX0136F03 mRNA) of the same compound?
Answer: 3.50

Question: What about the “Ratio of Medians (Cy5/Cy3) Mean” value (PBX0136F03 mRNA) of the same compound?
Answer: 3.31 ± 0.20

Question: What about the “Ratio of Medians (Cy5/Cy3) Second Spot” value (PBX0136F03 mRNA) of the same compound?
Answer: 3.11

Question: And the “Normalized by Landmarks (1.59)” value (PBX0137A11 mRNA)?
Answer: 5.31

Question: And the “Normalized by all Data Points (1.28)” value (PBX0137A11 mRNA)?
Answer: 4.28

Question: What about the “Ratio of Medians (Cy5/Cy3) First Spot” value (PBX0137A11 mRNA) of the same compound?
Answer: 2.17

Question: What about the “Ratio of Medians (Cy5/Cy3) Mean” value (PBX0137A11 mRNA) of the same compound?
Answer: 3.34 ± 1.66

Question: And the “Ratio of Medians (Cy5/Cy3) Second Spot” value (PBX0137A11 mRNA)?
Answer: 4.50

Question: And the “(CY3/CY5) by Landmarks (1.6)” value (PBX0137E10 mRNA)?
Answer: 1.85

Question: What about the “(CY3/CY5) by all Data Points (1.3)” value (PBX0137E10 mRNA) of the same compound?
Answer: 2.96

Question: What about the “Normalization by Landmarks (1.6)” value (PBX0137E10 mRNA) of the same compound?
Answer: 0.54

Question: And the “Normalization by all Data Points (1.3)” value (PBX0137E10 mRNA)?
Answer: 0.34

Question: What about the “Ratio of Medians (Cy5/Cy3) First Spot” value (PBX0137E10 mRNA) of the same compound?
Answer: 0.31

Question: And the “Ratio of Medians (Cy5/Cy3) Mean” value (PBX0137E10 mRNA)?
Answer: 0.26 ± 0.05

Question: And the “Ratio of Medians (Cy5/Cy3) Second Spot” value (PBX0137E10 mRNA)?
Answer: 0.21

Question: And the “Normalized by Landmarks (1.59)” value (PBX0137G06 mRNA)?
Answer: 3.74

Question: What about the “Normalized by all Data Points (1.28)” value (PBX0137G06 mRNA) of the same compound?
Answer: 3.01

Question: What about the “Ratio of Medians (Cy5/Cy3) First Spot” value (PBX0137G06 mRNA) of the same compound?
Answer: 2.22

Question: And the “Ratio of Medians (Cy5/Cy3) Mean” value (PBX0137G06 mRNA)?
Answer: 2.35 ± 0.13

Question: What about the “Ratio of Medians (Cy5/Cy3) Second Spot” value (PBX0137G06 mRNA) of the same compound?
Answer: 2.47

Question: What about the “Normalized by Landmarks (1.59)” value (PBX0138A04 mRNA) of the same compound?
Answer: 4.75

Question: What about the “Normalized by all Data Points (1.28)” value (PBX0138A04 mRNA) of the same compound?
Answer: 3.83

Question: What about the “Ratio of Medians (Cy5/Cy3) First Spot” value (PBX0138A04 mRNA) of the same compound?
Answer: 1.64
